This note sets out measurements from patent US8246966B2, “Trypanosome microsome system and uses thereof” (priority 2006, dated 2012).

“Also recorded” adds a separate entry of the source. Like-named read-outs stand apart in the source and are kept apart here.

One data set concerns HeLa cells. In words: HeLa cell viability, propidium iodide exclusion assay. It counts as cell-based, human. The protocol: HeLa cells, treated with DMSO, MAL3-101, MAL3-51, CJ-21,058 or equisetin, were subject to a propidium iodide viability assay and analyzed by flow cytometry.
HeLa cell line was maintained in RPMI-1640 supplemented with 10% bovine serum, 100 U/ml penicillin/streptomycin, and 2 mM L-glutamine at 37° C. in 5% CO2.
HeLa cell viability assays. Propidium iodide exclusion assay (reviewed in Steff et al., 2001, Cytometry; 45(4):237-43 and Wigg et al., 2003, Anal Biochem; 317(1):19-25) was used to determine HeLa cell viability after drug treatment. Cells were plated at 1×10^4 cells per well (96 well plate) with or without addition of test compounds for the stated time periods, as described for FIGS. 1-4. […] Adherent cells were rinsed with phosphate buffered saline (PBS), trypsinized (37° C. for 5 minutes), pelleted (2,000 g, 2 minutes), resuspended in PBS (500 μl) containing propidium iodide (1 μg/ml), DAPI [4′-6-Diamidino-2-phenylindole] (5 μg/ml) and analyzed by flow cytometry on a Dakocytomation CyAn without gating. Single fluorophore controls were acquired prior to the collection of the experimental data.

Data set [1] has as its system T. brucei microsomes (TbRM). In words: Import of full length VSG—117 into TbRM with T. brucei cytosol (Example 10). Type of data set: biochemical, Trypanosoma brucei. The protocol: FIGS. 18A and 18B. MAL3-101, equisetin, and CJ-21,058 inhibit VSG translocation into TbRM. FIG. 18A presents the protocol used for import of VSG—117. In FIG. 18B, VSG—117 mRNA was translated in rabbit reticulocyte lysate with 1.5 equivalents T. brucei cytosol pretreated with MAL3-101 (3 μM), MAL3-51 (10 μM), CJ-21,058 (20 μM) or equisetin (50 μM)) for 60 minutes. The reaction mixtures received cycloheximide (50 μg/ml, final concentration) and were incubated with TbRM (one equivalent). After incubation at 37° C. for 60 minutes, reaction mixtures were transferred to an ice-water bath and treated with proteinase K (30 μg/ml, final concentration) for 60 minutes. Proteins were resolved by SDS-PAGE and detected by phosphorimaging. Lane 1 is VSG—117 incubated with TbRM; lane 2 is VSG—117 digested with proteinase K after incubation with TbRM; lane 3 is VSG—117 incubated with MAL3-101 in the presence of TbRM; lane 4 is VSG—117 and TbRM incubated with MAL3-101 and then digested with proteinase K; lane 5 is VSG—117 incubated with MAL3-51 and TbRM; lane 6 is VSG—117 incubated with TbRM in the presence of equisetin; lane 7 is VSG—117 incubated with ThRM; lane 8 is VSG—117 incubated with equisetin and digested with proteinase K; lane 9 is VSG—117 incubated with CJ-21,058 and TbRM; lane 10 is VSG—117 incubated with TbRM and CJ-21,058 and digested with proteinase K. For quantitation, each proteasedigested sample was compared to a control experiment containing the drug but without protease addition. Thus, lane 2 is compared with lane 1 while lane 4 is compared to lane 3, and so on.
Protein Import Into TbRM. Two μg of RNA encoding VSG—117 (or VSG_MVAT7) was translated in 30 μl of a reaction mixture containing 15 μl rabbit reticulocyte lysate, 60 μM amino acid mixture (-Met, -Cys), and 2.4 μCi [^35S]Promix. […] The gels were dried, and radioactive polypeptides were detected with a phosphorimager (Personal Molecular Imager FX, (BioRad). Data were quantified with QuantityOne software (BioRad), and graphs were plotted with DeltaGraph (Red Rock software). […]

Consider `C/C=C/[C@@H]1C=C[C@@H]2C[C@H](C)CC[C@H]2[C@]1(C)/C(O)=C1/C(=O)[C@H](CO)N(C)C1=O` [equisetin], for which the “effect on human HeLa cells” value in the data set on HeLa cells (concentrations that killed one hundred percent T. brucei (IC100)) is “little effect; also recorded: did not have discernible effects”. Further, in the data set with HeLa cells (equisetin 26 μM), the HeLa cell viability entry is “neither CJ-21,058 (20 μM) nor equisetin (26 μM) decreased viability of HeLa cells”. Besides, the “inhibition of VSG—117 translocation into TbRM” value in data set [1] (equisetin (50 μM in FIG. 18B legend)) was 95%.
As for `C/C=C/C1C(C)=CC2CC(C)CCC2C1(C)/C(O)=C1/C(=O)C(CO)N(C)C1=O` (stereo not drawn) [CJ-21,058], in the data set on HeLa cells, the “effect on human HeLa cells” value was “little effect”. Besides, in data set [1] (CJ-21,058 (20 μM in FIG. 18B legend)), the “inhibition of import of VSG—117 into TbRM compared to DMSO control” value is 70%.
Take `CCCCCCN(C(=O)CCCCCN1C(=O)NC(c2ccc(-c3ccccc3)cc2)C(C(=O)OCc2ccccc2)=C1C)C(C(=O)NCCCC)c1ccc(OCC(=O)OC)c(C(=O)OC)c1` (stereo not drawn) [MAL3-101]: in data set [1] (MAL3-101 present (3 μM in FIG. 18B legend), DMSO approximately 80%), the “VSG—117 protected from proteinase K” value is recorded as 13%.
